Reference: patent US20240116946A1 (Gilead Sciences, Inc., priority 2022, published 2024)
Read-outs that look alike come from different tables or passages of the source.

Legend:
SARS-CoV-2-NLuc = assay: microbe, parasite or virus in culture; type: cell-based, SARS Coronavirus 2
[1] = molecular target: recombinant SARS-CoV-2 Main protease (Mpro) (Severe acute respiratory syndrome coronavirus 2 (2019-nCoV) (SARS-CoV-2), UniProt P0DTD1); assay: Cov Mpro Biochemical IC50 Assay; details: read-out: MPro IC50
[2] = Severe acute respiratory syndrome coronavirus, 48 h, read-out: MPro EC50
[3] = recombinant SARS-CoV-2 Mpro, fluorogenic peptide substrate
[4] = recombinant SARS-CoV-2 Mpro 7.5 nM, fluorogenic peptide substrate 40 μM
[5] = Severe acute respiratory syndrome coronavirus, 48 h; read-out: MPro EC50

Row | Structure (SMILES) | EC50 (SARS-CoV-2-NLuc; [2]) [nM] | IC50 [1, 3] [nM] | IC50 [1, 4] [nM] | EC50 (SARS-CoV-2-NLuc; [5]) [nM] | EC50 (SARS-CoV-2-NLuc; read-out: MPro EC50) [nM]
1 | O=c1[nH]c2cc(-c3c(Cl)cccc3-c3ccc4c(c3)CCO4)ccc2c(=O)n1-c1cncc2ccccc12 [Example 179] | 84.8 | 195 | – | – | –
2 | COc1ccc(C#N)c(-c2cc3c(cc2F)c(=O)n(-c2cncc4ccccc24)c(=O)n3CCC#N)c1 [Example 902] | 134 | – | 87.3 | – | –
3 | O=c1[nH]c2cc(-c3cc(O)ccc3Cl)ccc2c(=O)n1-c1cncc2ccccc12 [Example 296] | 1430 | 384 | – | – | –
4 | CNC(=O)CCn1c(=O)n(-c2cncc3ccccc23)c(=O)c2sc(-c3ccccc3Cl)cc21 [Example 613, 3-(6-(2-chlorophenyl)-3-(isoquinolin-4-yl)-2,4-dioxo-3,4-dihydrothieno[3,2-d]pyrimidin-1(2H)-yl)-N-methylpropanamide] | – | – | 68.6 | 91.9 | –
5 | COc1cc(-c2cc3[nH]c(=O)n(-c4cncc5c(CO)nn(C)c45)c(=O)c3s2)c(Cl)cc1F [Example 699] | 470 | – | 10.6 | – | –
6 | Cn1ncc2cncc(-n3c(=O)c4sc(-c5cc(F)ccc5Cl)cc4n(CC#N)c3=O)c21 [Example 664] | 11.4 | – | 5.24 | – | –
7 | N#Cc1ccc(Cl)c(-c2cc3[nH]c(=O)n(-c4cncc5ccccc45)c(=O)c3s2)c1 [Example 545] | 112 | – | 29.4 | – | –
8 | COc1cnc(Cl)c(-c2cc3[nH]c(=O)n(-c4cncc(C5CC5)c4)c(=O)c3s2)c1 [Example 369] | – | 9.23 | – | 110 | –
9 | COc1cc(-c2cc3[nH]c(=O)n(-c4cncc(Cl)c4C)c(=O)c3s2)c(Cl)cc1F [Example 743, 6-(2-chloro-4-fluoro-5-methoxy-phenyl)-3-(5-chloro-4-methyl-3-pyridyl)-1H-thieno[3,2-d]pyrimidine-2,4-dione] | – | – | 12.1 | 16.3 | –
10 | O=c1[nH]c2cc(-c3ccccc3Cl)ccc2c(=O)n1-c1cncc2ccccc12 [Example 73, 7-(2-chlorophenyl)-3-(isoquinolin-4-yl)quinazoline-2,4(1H,3H)-dione] | 262 | 159 | – | – | –
11 | Cc1noc(C)c1-c1cc2[nH]c(=O)n(-c3cncc4cnn(C)c34)c(=O)c2s1 [Example 805] | – | – | 701 | > 1000 | –
12 | O=c1[nH]c2cc(-c3c(Cl)cccc3-c3ccnnc3)sc2c(=O)n1-c1cncc(C2CC2)c1 [Example 616] | 320 | – | 6.92 | – | –
13 | COc1cc(-c2cc3[nH]c(=O)n(-c4cncc5sc(C(N)=O)c(C)c45)c(=O)c3s2)c(Cl)cc1F [Example 1049] | 40.9 | – | 3.16 | – | –
14 | CN1C(=O)COc2cc(-c3cccc(Cl)c3-c3ccc4c(=O)n(-c5cncc6ccccc56)c(=O)[nH]c4c3)cnc21 [Example 195] | 9.06 | 8.82 | – | – | –
15 | O=c1[nH]c2cc(-c3ccccc3Cl)sc2c(=O)n1-c1cncc2sccc12 [Example 336] | 7.02 | 4.68 | – | – | –
16 | COc1cc(Cl)c(-c2cc3c(s2)c(=O)n(-c2cncc4cnn(C)c24)c(=O)n3CCC#N)cc1Cl [Example 791] | 9.04 | – | 6.98 | – | –
17 | O=c1[nH]c2cc(-c3ccccc3Cl)ccc2c(=O)n1-c1cnccc1N1CCNCC1 [Example 116, 7-(2-chlorophenyl)-3-(4-(piperazin-1-yl)pyridin-3-yl)quinazoline-2,4(1H,3H)-dione] | – | 797 | – | 3200 | –
18 | Cn1ncc2cncc(-n3c(=O)c4sc(-c5ccccc5C#N)cc4n(CCC#N)c3=O)c21 (single isomer, unassigned) [Example 961, 2-(1-(2-cyanoethyl)-3-(1-methyl-1H-pyrazolo[4,3-c]pyridin-7-yl)-2,4-dioxo-1,2,3,4-tetrahydrothieno[3,2-d]pyrimidin-6-yl)benzonitrile] | – | – | 6.18 | – | 19.6
19 | Cn1cc(-c2cccc(Cl)c2-c2ccc3c(=O)n(-c4cncc5ccccc45)c(=O)[nH]c3c2)cn1 [Example 144] | 68.2 | 95.4 | – | – | –
